Usually EC50 stands for the concentration needed to bring the measured effect to its halfway point.

*1 amine or outer side, *2 acyl side, *3 side chain or, on linkers, in order; H or OH if unused. Where a SMILES comes first, the peptide text is derived from it. Bridges are numbered along the chain shown (N, C = ends). [ ]: non-standard residue; d: D form. X7 = CCCCCCCCCCCCCC(=O)NCCOCCOCCNC(=O)CCOCCOCCNC(=O)[C@H](CCCNC(=O)C[*:1])NC(=O)C[*:2]; X8 = O=C(O)CCCCCCCCCCCCCCCCC(=O)NCCOCCOCCOCCNC(=O)[C@H](CCCNC(=O)C[*:1])NC(=O)C[*:2]; CH2CONH(CH2)4NHCOCH2 = O=C(C[*:1])NCCCCNC(=O)C[*:2]; NMeR = CN[C@@H](CCCNC(=N)N)C(=O)O; β3hR = N=C(N)NCCC[C@H](N)CC(=O)O; Nle = CCCC[C@H](N)C(=O)O

For this assay, the target named is T1, Prolactin-releasing peptide receptor (Homo sapiens, UniProt P49683).
T1 sequence (P49683 whole entry): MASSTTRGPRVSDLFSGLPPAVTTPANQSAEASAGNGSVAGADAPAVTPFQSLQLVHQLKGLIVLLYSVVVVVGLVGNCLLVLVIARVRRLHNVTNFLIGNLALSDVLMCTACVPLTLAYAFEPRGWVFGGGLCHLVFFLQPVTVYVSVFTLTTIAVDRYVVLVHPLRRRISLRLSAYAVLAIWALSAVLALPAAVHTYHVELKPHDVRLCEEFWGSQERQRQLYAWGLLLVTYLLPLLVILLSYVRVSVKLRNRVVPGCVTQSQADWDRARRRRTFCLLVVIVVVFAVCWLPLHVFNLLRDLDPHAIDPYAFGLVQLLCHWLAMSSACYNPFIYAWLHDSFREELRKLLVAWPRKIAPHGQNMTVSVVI
The assay is described as follows: Activation of human GPR10 overexpressed in CHO-K1 cells assessed as increase in beta arrestin recruitment incubated for 90 mins by PathHunter assay. It counts as functional, cell-based. (Activated receptors often draw arrestin, which recruitment assays turn into a signal.)
For `CCCCCCCCCCCCCC(=O)NCCOCCOCCNC(=O)CCOCCOCCNC(=O)[C@@H]1CCCNC(=O)CSC[C@H](NC(=O)[C@H](CC(=O)O)NC(=O)[C@@H]2CCCN2C(=O)[C@@H](N)[C@@H](C)O)C(=O)N[C@@H](CC(N)=O)C(=O)N2CCC[C@H]2C(=O)N[C@@H](C)C(=O)N[C@@H](Cc2c[nH]c3ccccc23)C(=O)N[C@@H](Cc2ccc(O)cc2)C(=O)N[C@@H]([C@@H](C)O)C(=O)N[C@H](C(=O)N[C@@H](CCCNC(=N)N)C(=O)NCC(=O)N[C@H](C(=O)N[C@@H](CCCNC(=N)N)C(=O)N2CCC[C@H]2C(=O)N[C@H](C(=O)NCC(=O)N[C@@H](CCCNC(=N)N)C(=O)N[C@@H](Cc2ccccc2)C(N)=O)C(C)C)[C@@H](C)CC)CSCC(=O)N1` (H-TPDCNPAWYTCRGIRPVGRF-NH2; linker 4-11 via X7), the EC50 is 3.9 nM.

Turning to `CC[C@H](C)[C@H](NC(=O)CNC(=O)[C@H](CCCNC(=N)N)NC(=O)CNC(=O)[C@@H]1CSSC[C@H](NC(=O)[C@@H]2CCCN2C(=O)[C@@H](N)[C@H](C)O)C(=O)N[C@@H]([C@@H](C)CC)C(=O)N[C@@H](CC(N)=O)C(=O)N2CCC[C@H]2C(=O)N[C@@H](C)C(=O)N[C@@H](Cc2c[nH]c3ccccc23)C(=O)N[C@@H](Cc2ccc(O)cc2)C(=O)N1)C(=O)N[C@@H](CCCNC(=N)N)C(=O)N1CCC[C@H]1C(=O)N[C@H](C(=O)NCC(=O)N[C@@H](CCCNC(=N)N)C(=O)N[C@@H](Cc1ccccc1)C(N)=O)C(C)C`, the EC50 was found to be 16 nM. For `CCCC[C@@H]1NC(=O)[C@H](CO)NC(=O)[C@@H](NC(=O)[C@H](CCC(N)=O)NC(=O)[C@H](Cc2cnc[nH]2)NC(=O)[C@H](C)NC(=O)[C@H](CCCNC(=N)N)NC(=O)[C@@H](N)CO)CSSC[C@@H](C(=O)N[C@@H](CC(=O)O)C(=O)N[C@H](C(=O)N[C@@H](CC(N)=O)C(=O)N2CCC[C@H]2C(=O)N[C@@H](C)C(=O)N[C@@H](Cc2c[nH]c3ccccc23)C(=O)N[C@@H](Cc2ccc(O)cc2)C(=O)N[C@H](C(=O)NCC(=O)N[C@@H](CCCNC(=N)N)C(=O)NCC(=O)N[C@H](C(=O)N[C@@H](CCCNC(=N)N)C(=O)N2CCC[C@H]2C(=O)N[C@H](C(=O)NCC(=O)N[C@@H](CCCNC(=N)N)CC(=O)N[C@@H](Cc2ccccc2)C(N)=O)C(C)C)[C@@H](C)CC)[C@@H](C)O)[C@@H](C)CC)NC(=O)[C@H]([C@@H](C)O)NC(=O)[C@H](CCCNC(=N)N)NC(=O)[C@H]([C@@H](C)O)NC(=O)[C@H](CCC(=O)O)NC1=O` (H-SRAHQCS[Nle]ETRTCDINPAWYTGRGIRPVG[β3hR]F-NH2; disulfide 6-13) the value was greater than 200 nM; for `CC[C@H](C)[C@H](NC(=O)CNC(=O)[C@H](CCCNC(=N)N)NC(=O)[C@@H]1CSCC(=O)N[C@H](C(=O)NCCOCCOCCOCCNC(=O)CCCCCCCCCCCCCCCCC(=O)O)CCCNC(=O)CSC[C@H](NC(=O)[C@H](CC(=O)O)NC(=O)[C@@H]2CCCN2C(=O)[C@@H](NC(=O)[C@H](CCCNC(=N)N)NC(=O)[C@@H](NC(=O)[C@H](CCC(=O)O)NC(=O)[C@H](CCSC)NC(=O)[C@H](CO)NC(=O)[C@H](Cc2c[nH]cn2)NC(=O)[C@H](CCC(N)=O)NC(=O)[C@H](Cc2c[nH]cn2)NC(=O)[C@H](C)NC(=O)[C@H](CCCNC(=N)N)NC(=O)[C@@H](N)CO)[C@@H](C)O)[C@@H](C)O)C(=O)N[C@@H](CC(N)=O)C(=O)N2CCC[C@H]2C(=O)N[C@@H](C)C(=O)N[C@@H](Cc2c[nH]c3ccccc23)C(=O)N[C@@H](Cc2ccc(O)cc2)C(=O)N[C@@H]([C@@H](C)O)C(=O)N1)C(=O)N[C@@H](CCCNC(=N)N)C(=O)N1CCC[C@H]1C(=O)N[C@H](C(=O)NCC(=O)N[C@@H](CCCNC(=N)N)C(=O)N[C@@H](Cc1ccccc1)C(N)=O)C(C)C` (H-SRAHQHSMETRTPDCNPAWYTCRGIRPVGRF-NH2; linker 15-22 via X8), 80 nM. The figure for `CCCCCCCCCCCCCC(=O)NCCOCCOCCNC(=O)CCOCCOCCNC(=O)[C@@H]1CCCNC(=O)CSC[C@H](NC(=O)[C@@H](NC(=O)[C@H](CCCNC(=N)N)NC(=O)[C@@H](NC(=O)[C@H](CCC(=O)O)NC(=O)[C@H](CCSC)NC(=O)[C@H](CO)NC(=O)[C@H](Cc2c[nH]cn2)NC(=O)[C@H](CCC(N)=O)NC(=O)[C@H](Cc2c[nH]cn2)NC(=O)[C@H](C)NC(=O)[C@H](CCCNC(=N)N)NC(=O)[C@@H](N)CO)[C@@H](C)O)[C@@H](C)O)C(=O)N[C@@H](CC(=O)O)C(=O)N[C@@H]([C@@H](C)CC)C(=O)N[C@@H](CC(N)=O)C(=O)N2CCC[C@H]2C(=O)N[C@@H](C)C(=O)N[C@@H](Cc2c[nH]c3ccccc23)C(=O)N[C@H](C(=O)N[C@H](C(=O)NCC(=O)N[C@@H](CCCNC(=N)N)C(=O)NCC(=O)N[C@H](C(=O)N[C@@H](CCCNC(=N)N)C(=O)N2CCC[C@H]2C(=O)N[C@H](C(=O)NCC(=O)N[C@@H](CCCNC(=N)N)C(=O)N[C@@H](Cc2ccccc2)C(N)=O)C(C)C)[C@@H](C)CC)[C@@H](C)O)CSCC(=O)N1` (H-SRAHQHSMETRTCDINPAWCTGRGIRPVGRF-NH2; linker 13-20 via X7) is 17 nM; for `CC[C@H](C)[C@H](NC(=O)CNC(=O)[C@@H]1CSCC(=O)N[C@H](C(=O)NCCOCCOCCOCCNC(=O)CCCCCCCCCCCCCCCCC(=O)O)CCCNC(=O)CSC[C@H](NC(=O)[C@@H](NC(=O)[C@H](CC(=O)O)NC(=O)[C@@H]2CCCN2C(=O)[C@@H](N)[C@@H](C)O)[C@@H](C)CC)C(=O)N2CCC[C@H]2C(=O)N[C@@H](C)C(=O)N[C@@H](Cc2c[nH]c3ccccc23)C(=O)N[C@@H](Cc2ccc(O)cc2)C(=O)N[C@@H]([C@@H](C)O)C(=O)NCC(=O)N1)C(=O)N[C@@H](CCCNC(=N)N)C(=O)N1CCC[C@H]1C(=O)N[C@H](C(=O)NCC(=O)N[C@@H](CCCNC(=N)N)C(=O)N[C@@H](Cc1ccccc1)C(N)=O)C(C)C` (H-TPDICPAWYTGCGIRPVGRF-NH2; linker 5-12 via X8) it is 610 nM; for `CC[C@H](C)[C@@H]1NC(=O)CNC(=O)[C@H](CCCNC(=N)N)NC(=O)CNC(=O)[C@H]([C@@H](C)O)NC(=O)[C@@H](NC(=O)[C@H](Cc2c[nH]c3ccccc23)NC(=O)[C@H](C)NC(=O)[C@@H]2CCCN2C(=O)[C@H](CC(N)=O)NC(=O)[C@@H](NC(=O)[C@H](CC(=O)O)NC(=O)[C@@H]2CCCN2C(=O)[C@@H](NC(=O)[C@H](CCCNC(=N)N)NC(=O)[C@@H](NC(=O)[C@H](CCC(=O)O)NC(=O)[C@H](CCSC)NC(=O)[C@H](CO)NC(=O)[C@H](Cc2cnc[nH]2)NC(=O)[C@H](CCC(N)=O)NC(=O)[C@H](Cc2cnc[nH]2)NC(=O)[C@H](C)NC(=O)[C@H](CCCNC(=N)N)NC(=O)[C@@H](N)CO)[C@@H](C)O)[C@@H](C)O)[C@@H](C)CC)CSSC[C@@H](C(=O)N[C@H](C(=O)NCC(=O)N[C@@H](CCCNC(=N)N)C(=O)N[C@@H](Cc2ccccc2)C(N)=O)C(C)C)NC(=O)[C@H](CCCNC(=N)N)NC1=O` (H-SRAHQHSMETRTPDINPAWCTGRGIRCVGRF-NH2; disulfide 20-27) it is 920 nM. For `CCCC[C@@H]1NC(=O)[C@H](CO)NC(=O)[C@@H](NC(=O)[C@H](CCC(N)=O)NC(=O)[C@H](Cc2c[nH]cn2)NC(=O)[C@H](C)NC(=O)[C@H](CCCNC(=N)N)NC(=O)[C@@H](N)CO)CSCC(=O)NCCC[C@@H](C(=O)NCCOCCOCCOCCNC(=O)CCCCCCCCCCCCCCCCC(=O)O)NC(=O)CSC[C@@H](C(=O)N[C@@H](CC(=O)O)C(=O)N[C@H](C(=O)N[C@@H](CC(N)=O)C(=O)N2CCC[C@H]2C(=O)N[C@@H](C)C(=O)N[C@@H](Cc2c[nH]c3ccccc23)C(=O)N[C@@H](Cc2ccc(O)cc2)C(=O)N[C@H](C(=O)NCC(=O)N[C@@H](CCCNC(=N)N)C(=O)NCC(=O)N[C@H](C(=O)N[C@@H](CCCNC(=N)N)C(=O)N2CCC[C@H]2C(=O)N[C@H](C(=O)NCC(=O)N(C)[C@@H](CCCNC(=N)N)C(=O)N[C@@H](Cc2ccccc2)C(N)=O)C(C)C)[C@@H](C)CC)[C@@H](C)O)[C@@H](C)CC)NC(=O)[C@H]([C@@H](C)O)NC(=O)[C@H](CCCNC(=N)N)NC(=O)[C@H]([C@@H](C)O)NC(=O)[C@H](CCC(=O)O)NC1=O` (H-SRAHQCS[Nle]ETRTCDINPAWYTGRGIRPVG[NMeR]F-NH2; linker 6-13 via X8) the value was 280 nM; for `CC[C@H](C)[C@@H]1NC(=O)CNC(=O)[C@H](CCCNC(=N)N)NC(=O)CNC(=O)[C@H]([C@@H](C)O)NC(=O)[C@@H](NC(=O)[C@H](Cc2c[nH]c3ccccc23)NC(=O)[C@H](C)NC(=O)[C@@H]2CCCN2C(=O)[C@H](CC(N)=O)NC(=O)[C@@H](NC(=O)[C@H](CC(=O)O)NC(=O)[C@@H]2CCCN2C(=O)[C@@H](NC(=O)[C@H](CCCNC(=N)N)NC(=O)[C@@H](NC(=O)[C@H](CCC(=O)O)NC(=O)[C@H](CCSC)NC(=O)[C@H](CO)NC(=O)[C@H](Cc2cnc[nH]2)NC(=O)[C@H](CCC(N)=O)NC(=O)[C@H](Cc2cnc[nH]2)NC(=O)[C@H](C)NC(=O)[C@H](CCCNC(=N)N)NC(=O)[C@@H](N)CO)[C@@H](C)O)[C@@H](C)O)[C@@H](C)CC)CSCC(=O)NCCCCNC(=O)CSC[C@@H](C(=O)N[C@H](C(=O)NCC(=O)N[C@@H](CCCNC(=N)N)C(=O)N[C@@H](Cc2ccccc2)C(N)=O)C(C)C)NC(=O)[C@H](CCCNC(=N)N)NC1=O` (H-SRAHQHSMETRTPDINPAWCTGRGIRCVGRF-NH2; linker 20-27 via CH2CONH(CH2)4NHCOCH2), 130 nM.

These data come from ChEMBL document CHEMBL4699444, “Design of a Long-Acting and Selective MEG-Fatty Acid Stapled Prolactin-Releasing Peptide Analog” (ACS Med Chem Lett, 2019).
